Key:
[1] = tested on: TGFβ/SMAD Signaling Pathway SBE reporter cell line; assay: TGFβ reporter assay, in vitro small molecule screening (luciferase); format: cell-based; conditions: TGFβ stimulation, luminescence
In short: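 SBE luciferase reporter cells (~0.5×10^6 cells/mL) preincubated with compound 5-6 h at 37 °C in 0.5% FBS MEM, then stimulated with TGFβ (12 ng/mL stock) for 18 h. Luminescence read after luciferase substrate; EC50 from curve fits.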

TGFBR2 = molecular target: T1, TGFBR2 (Homo sapiens, UniProt P37173); assay: TGFBR2 RBC assay (enzyme inhibition assay, Reaction Biology Corp.); format: biochemical
T1 construct: purchased Reaction Biology Corp
T1 sequence (P37173 23-567): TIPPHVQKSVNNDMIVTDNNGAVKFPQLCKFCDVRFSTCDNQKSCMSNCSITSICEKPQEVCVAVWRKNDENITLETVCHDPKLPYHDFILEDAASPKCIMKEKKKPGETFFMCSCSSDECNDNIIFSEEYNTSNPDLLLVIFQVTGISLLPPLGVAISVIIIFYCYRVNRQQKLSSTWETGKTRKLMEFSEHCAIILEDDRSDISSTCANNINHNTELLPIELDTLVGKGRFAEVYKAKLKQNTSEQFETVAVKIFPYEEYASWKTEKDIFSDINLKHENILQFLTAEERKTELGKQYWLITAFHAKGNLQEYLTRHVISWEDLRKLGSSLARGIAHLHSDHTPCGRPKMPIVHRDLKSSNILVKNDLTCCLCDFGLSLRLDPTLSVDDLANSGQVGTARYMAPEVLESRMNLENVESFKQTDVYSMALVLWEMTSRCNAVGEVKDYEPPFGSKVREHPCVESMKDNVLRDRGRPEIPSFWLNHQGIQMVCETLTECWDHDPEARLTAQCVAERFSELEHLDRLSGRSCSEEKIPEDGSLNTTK
Protocol: Compounds of the disclosure were also assayed by Reaction Biology Corp. using the TGFBR2 RBC assay (enzyme inhibition assay). […] NT refers to not tested.

| SMILES | EC50 [1] | IC50 (TGFBR2) |
| --- | --- | --- |
| NCCc1ccc(-c2cnc(N)c(C(=O)Nc3cnc(N)cc3N3CCOCC3)n2)cc1 [Compound 135] | > 1 µM | > 1 µM |
| NCCc1ccc(-c2cnc(N)c(C(=O)Nc3cnccc3-n3ccnc3)n2)cc1 [Compound 136] | > 1 µM | < 0.05 µM |
| Nc1ncc(-c2ccc(CCNC(=O)OCc3ccccc3)cc2)nc1C(=O)Nc1cnccc1-n1ccnc1 [Compound 137] | > 1 µM | < 0.05 µM |
| Cc1nccn1-c1ccncc1NC(=O)c1nc(-c2ccc(CCN)cc2)cnc1N [Compound 138] | > 1 µM | < 0.05 µM |
| NCCc1ccc(-c2cnc(N)c(C(=O)Nc3cncc(Cl)c3N3CCOCC3)n2)cc1 [Compound 139] | 0.1 to 1 µM | < 0.05 µM |
| CCc1nccn1-c1ccncc1NC(=O)c1nc(-c2ccc(CCN)cc2)cnc1N [Compound 140] | > 1 µM | < 0.05 µM |
| CCc1nccn1-c1ccncc1NC(=O)c1nc(-c2ccc(CCNC(=O)OCc3ccccc3)cc2)cnc1N [Compound 141] | > 1 µM | < 0.05 µM |
| CC(C)c1nccn1-c1ccncc1NC(=O)c1nc(-c2ccc(CCN)cc2)cnc1N [Compound 142] | 0.1 to 1 µM | < 0.05 µM |
| CC(C)c1nccn1-c1ccncc1NC(=O)c1nc(-c2ccc(CCNC(=O)OCc3ccccc3)cc2)cnc1N [Compound 143] | > 1 µM | < 0.05 µM |
| Nc1ncc(-c2ccc(CCNC(=O)OCc3ccccc3)cc2)nc1C(=O)Nc1cncc(-c2ccccc2[N+](=O)[O-])c1 [Compound 144] | > 1 µM | < 0.05 µM |
| NCCc1ccc(-c2cnc(N)c(C(=O)Nc3cncc(-c4ccccc4N)c3)n2)cc1 [Compound 148] | > 1 µM | 0.1 to 1 µM |
| NCCc1ccc(-c2cnc(N)c(C(=O)Nc3cncc(-c4cccc(N)c4)c3)n2)cc1 [Compound 149] | > 1 µM | 0.05 to 0.1 µM |
| COc1ccccc1-c1cnc(N)c(C(=O)Nc2cnccc2N2CCOCC2)n1 [Compound 150] | > 1 µM | 0.1 to 1 µM |
| Nc1ncc(-c2ccccc2Cl)nc1C(=O)Nc1cnccc1N1CCOCC1 [Compound 151] | 0.1 to 1 µM | 0.05 to 0.1 µM |
| Nc1ncc(-c2cccc(Cl)c2)nc1C(=O)Nc1cnccc1N1CCOCC1 [Compound 152] | 0.1 to 1 µM | < 0.05 µM |
| Nc1ncc(-c2ccc(Cl)cc2Cl)nc1C(=O)Nc1cnccc1N1CCOCC1 [Compound 153] | > 1 µM | 0.1 to 1 µM |
| Nc1ncc(-c2ccc(Cl)c(Cl)c2)nc1C(=O)Nc1cnccc1N1CCOCC1 [Compound 154] | > 1 µM | 0.1 to 1 µM |
| COc1cccc(-c2cnc(N)c(C(=O)Nc3cnccc3N3CCOCC3)n2)c1 [Compound 155] | 0.1 to 1 µM | < 0.05 µM |
| COc1ccc(-c2cnc(N)c(C(=O)Nc3cnccc3N3CCOCC3)n2)cc1 [Compound 156] | 0.1 to 1 µM | < 0.05 µM |
| COc1ccc(-c2cnc(N)c(C(=O)Nc3cnccc3N3CCOCC3)n2)c(OC)c1 [Compound 157] | 0.1 to 1 µM | 0.1 to 1 µM |
| COc1ccc(-c2cnc(N)c(C(=O)Nc3cnccc3N3CCOCC3)n2)cc1OC [Compound 158] | 0.1 to 1 µM | < 0.05 µM |
| COc1ccc(OC)c(-c2cnc(N)c(C(=O)Nc3cnccc3N3CCOCC3)n2)c1 [Compound 159] | 0.1 to 1 µM | 0.1 to 1 µM |
| Nc1ncc(-c2ccc(Cl)cc2)nc1C(=O)Nc1cnccc1N1CCOCC1 [Compound 160] | 0.1 to 1 µM | < 0.05 µM |
| Nc1ncc(-c2cc(Cl)ccc2Cl)nc1C(=O)Nc1cnccc1N1CCOCC1 [Compound 161] | 0.1 to 1 µM | 0.1 to 1 µM |

| SMILES | EC50 [1] | IC50 (TGFBR2) |
| --- | --- | --- |
| Nc1ncc(-c2ccc(O[C@@H]3CCN(C(=O)OCc4ccccc4)C3)cc2)nc1C(=O)Nc1cnccc1N1CCOCC1 [Compound 162] | 0.1 to 1 µM | < 0.05 µM |
| Nc1ncc(-c2ccc(O[C@@H]3CCCN(C(=O)OCc4ccccc4)C3)cc2)nc1C(=O)Nc1cnccc1N1CCOCC1 [Compound 163] | 0.1 to 1 µM | 0.1 to 1 µM |
| Nc1ncc(-c2ccc(O[C@H]3CCN(C(=O)OCc4ccccc4)C3)cc2)nc1C(=O)Nc1cnccc1N1CCOCC1 [Compound 164] | 0.1 to 1 µM | 0.05 to 0.1 µM |
| Nc1ncc(-c2ccc(O[C@H]3CCCN(C(=O)OCc4ccccc4)C3)cc2)nc1C(=O)Nc1cnccc1N1CCOCC1 [Compound 165] | 0.1 to 1 µM | 0.1 to 1 µM |
| Nc1ncc(-c2ccc(OC3CCN(C(=O)OCc4ccccc4)CC3)cc2)nc1C(=O)Nc1cnccc1N1CCOCC1 [Compound 166] | 0.1 to 1 µM | 0.1 to 1 µM |
| Nc1ncc(-c2ccc(OC3CCNCC3)cc2)nc1C(=O)Nc1cnccc1N1CCOCC1 [Compound 167] | 0.05 to 0.1 µM | < 0.05 µM |
| Nc1ncc(-c2ccc(O[C@@H]3CCCNC3)cc2)nc1C(=O)Nc1cnccc1N1CCOCC1 [Compound 168] | 0.05 to 0.1 µM | < 0.05 µM |
| Nc1ncc(-c2ccc(O[C@H]3CCCNC3)cc2)nc1C(=O)Nc1cnccc1N1CCOCC1 [Compound 169] | 0.05 to 0.1 µM | < 0.05 µM |
| COc1cccc(OC)c1-c1cnc(N)c(C(=O)Nc2cnccc2N2CCOCC2)n1 [Compound 172] | > 1 µM | > 1 µM |
| Nc1ncc(-c2c(Cl)cccc2Cl)nc1C(=O)Nc1cnccc1N1CCOCC1 [Compound 173] | 0.1 to 1 µM | > 1 µM |
| Nc1ncc(-c2ccc3c(c2)CCCO3)nc1C(=O)Nc1cnccc1N1CCOCC1 [Compound 174] | 0.1 to 1 µM | < 0.05 µM |
| NCc1cccc(-c2cnc(N)c(C(=O)Nc3cnccc3N3CCOCC3)n2)c1 [Compound 175] | 0.1 to 1 µM | 0.1 to 1 µM |
| Nc1ncc(-c2cccc(CNC(=O)OCc3ccccc3)c2)nc1C(=O)Nc1cnccc1N1CCOCC1 [Compound 176] | 0.1 to 1 µM | < 0.05 µM |
| Nc1ncc(-c2cccc(CCNC(=O)OCc3ccccc3)c2)nc1C(=O)Nc1cnccc1N1CCOCC1 [Compound 177] | 0.1 to 1 µM | 0.05 to 0.1 µM |
| Nc1ncc(-c2cccc(CCCNC(=O)OCc3ccccc3)c2)nc1C(=O)Nc1cnccc1N1CCOCC1 [Compound 178] | 0.1 to 1 µM | < 0.05 µM |
| Nc1ncc(-c2cccc3c2CCC3)nc1C(=O)Nc1cnccc1N1CCOCC1 [Compound 179] | > 1 µM | 0.05 to 0.1 µM |
| Nc1ncc(-c2ccccc2)nc1C(=O)Nc1cnccc1N1CCOCC1 [Compound 180] | 0.1 to 1 µM | 0.05 to 0.1 µM |
| NCCc1cccc(-c2cnc(N)c(C(=O)Nc3cnccc3N3CCOCC3)n2)c1 [Compound 181] | 0.1 to 1 µM | < 0.05 µM |
| NCCCc1cccc(-c2cnc(N)c(C(=O)Nc3cnccc3N3CCOCC3)n2)c1 [Compound 182] | 0.1 to 1 µM | < 0.05 µM |
| CC(C)(C)OC(=O)NCCOc1cccc(-c2cnc(N)c(C(=O)Nc3cnccc3N3CCOCC3)n2)c1 [Compound 183] | 0.1 to 1 µM | < 0.05 µM |
| NCCOc1cccc(-c2cnc(N)c(C(=O)Nc3cnccc3N3CCOCC3)n2)c1 [Compound 184] | 0.1 to 1 µM | < 0.05 µM |
| Nc1ncc(-c2ccc3c(c2)CCC3)nc1C(=O)Nc1cnccc1N1CCOCC1 [Compound 185] | 0.1 to 1 µM | < 0.05 µM |
| Nc1ncc(Cc2ccccc2)nc1C(=O)Nc1cnccc1N1CCOCC1 [Compound 186] | > 1 µM | > 1 µM |
| NCCc1ccc(-c2cnc(N)c(C(=O)Nc3cnccc3-n3cncn3)n2)cc1 [Compound 187] | 0.1 to 1 µM | < 0.05 µM |
